Laboratory results from paper PMC9692511, “Coumarin-Based Dual Inhibitors of Human Carbonic Anhydrases and Monoamine Oxidases Featuring Amino Acyl and (Pseudo)-Dipeptidyl Appendages: In Vitro and Computational Studies” (Molecules, 2022).
Values joined by “and” are separate entries in the source; they are usually repeats but may differ in a detail not shown here. Equal entries are not always repeated. Where two headings read alike, the source gives them in different places.

Legend:
hCA XII = biological target: T1, hCA XII (Homo sapiens, UniProt O43570); assay: hCA XII inhibition, stopped-flow CO2 hydration assay; format: biochemical; settings: for SI hCA XII over hCA I or hCA II: Ki hCA I or II (nM)/Ki hCA XII (nM); for SI hCA XII over hCA IX: Ki hCA IX (nM)/Ki hCA XII (nM)
T1 construct: made in house
Experimental: (§1) An Applied Photophysics stopped-flow instrument was used for measuring hCA-catalyzed CO2 hydration activity. […] However, the background activity from the uncatalyzed reaction was always subtracted when IC50 values were obtained by using the data analysis software for the stopped-flow instrument. […] The uncatalyzed rates were measured in the same manner and were subtracted from the total observed rates. Stock solutions of the inhibitor (0.1 mM) were prepared in distilled-deionized water, and dilutions up to 0.01 nM were performed thereafter with the assay buffer. Inhibitor and enzyme solutions were preincubated together for 15 min at room temperature prior to the assay, to allow for the formation of the E–I complex. The inhibition constants (Ki) were obtained by the nonlinear least-squares methods using PRISM 3 and the Cheng-Prusoff equation as reported earlier and are presented as the mean from at least three different determinations. All hCA isoforms were recombinant proteins obtained in-house, as reported earlier.

hMAO-A = biological target: T2, hMAO-A (Homo sapiens, UniProt P21397); assay: hMAO-A inhibition, kynuramine fluorescence assay; format: biochemical
T2 construct: purchased Sigma-Aldrich
T2 sequence (P21397 1-527): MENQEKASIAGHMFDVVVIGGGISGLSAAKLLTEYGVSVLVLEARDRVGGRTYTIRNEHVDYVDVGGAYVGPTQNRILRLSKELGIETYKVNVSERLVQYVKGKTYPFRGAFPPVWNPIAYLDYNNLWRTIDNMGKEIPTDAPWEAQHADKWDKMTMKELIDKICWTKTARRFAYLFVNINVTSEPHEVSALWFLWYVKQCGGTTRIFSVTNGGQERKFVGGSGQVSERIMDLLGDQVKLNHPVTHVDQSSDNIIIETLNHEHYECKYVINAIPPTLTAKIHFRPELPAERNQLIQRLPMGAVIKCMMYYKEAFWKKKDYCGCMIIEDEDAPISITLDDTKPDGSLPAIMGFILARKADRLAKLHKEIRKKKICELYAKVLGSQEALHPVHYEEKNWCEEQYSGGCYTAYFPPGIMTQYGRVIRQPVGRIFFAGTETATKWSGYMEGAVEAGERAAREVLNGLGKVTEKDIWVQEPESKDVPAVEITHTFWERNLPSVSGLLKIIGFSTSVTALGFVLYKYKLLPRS
Experimental: (§2) Activity measurements (IC50) for hMAO-A and hMAO-B were carried out as reported in the literature. Recombinant human MAO-A and MAO-B were obtained commercially (Sigma-Aldrich, Cape Town, South Africa) and were used as enzyme sources. Kynuramine is a non-specific substrate and serves as a substrate for both hMAO isoforms. The hMAOs metabolize kynuramine to produce 4-hydroxyquinoline, which was measured at the endpoint of the enzyme reactions by fluorescence spectrophotometry.

hCA I = biological target: T3, hCA I (Homo sapiens, UniProt P00915); assay: hCA I inhibition, stopped-flow CO2 hydration assay; format: biochemical; settings: stopped-flow technique, mean of three independent experiments
T3 construct: made in house
Experimental: as §1

hMAO-B = biological target: T4, hMAO-B (Homo sapiens, UniProt P27338); assay: hMAO-B inhibition, kynuramine fluorescence assay; format: biochemical; settings: recombinant human MAO-B, kynuramine substrate; mean ± SD of three independent experiments
T4 construct: purchased Sigma-Aldrich
T4 sequence (P27338 1-520): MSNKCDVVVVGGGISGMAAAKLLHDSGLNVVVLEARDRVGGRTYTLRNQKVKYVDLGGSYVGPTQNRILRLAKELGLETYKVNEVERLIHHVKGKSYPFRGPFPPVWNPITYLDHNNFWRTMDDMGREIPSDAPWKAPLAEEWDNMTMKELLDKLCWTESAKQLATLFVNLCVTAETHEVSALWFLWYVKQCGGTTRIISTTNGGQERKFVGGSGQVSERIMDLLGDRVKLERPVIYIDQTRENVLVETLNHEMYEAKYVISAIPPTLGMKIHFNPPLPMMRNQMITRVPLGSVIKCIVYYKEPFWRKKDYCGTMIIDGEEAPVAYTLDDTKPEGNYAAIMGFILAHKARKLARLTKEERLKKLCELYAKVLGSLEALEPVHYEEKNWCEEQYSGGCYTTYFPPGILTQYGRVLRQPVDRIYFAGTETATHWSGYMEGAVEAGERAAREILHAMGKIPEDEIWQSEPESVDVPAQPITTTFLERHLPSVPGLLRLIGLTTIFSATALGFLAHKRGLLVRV
Experimental: as §2

hCA II = biological target: T5, hCA II (Homo sapiens, UniProt P00918); assay: hCA II inhibition, stopped-flow CO2 hydration assay; format: biochemical; settings: stopped-flow technique, mean of three independent experiments
T5 construct: made in house
Experimental: as §1

hCA IX = biological target: T6, hCA IX (Homo sapiens, UniProt Q16790); assay: hCA IX inhibition, stopped-flow CO2 hydration assay; format: biochemical; settings: for Ki: stopped-flow technique, mean of three independent experiments
T6 construct: made in house
Experimental: as §1

[1] = stopped-flow technique, mean of three independent experiments, read-out: Ki hCA XII
[2] = recombinant human MAO-A, kynuramine substrate, mean ± SD of three independent experiments
[3] = Ki hCA I or II (nM)/Ki hCA IX (nM)

T1 sequence (O43570 25-354): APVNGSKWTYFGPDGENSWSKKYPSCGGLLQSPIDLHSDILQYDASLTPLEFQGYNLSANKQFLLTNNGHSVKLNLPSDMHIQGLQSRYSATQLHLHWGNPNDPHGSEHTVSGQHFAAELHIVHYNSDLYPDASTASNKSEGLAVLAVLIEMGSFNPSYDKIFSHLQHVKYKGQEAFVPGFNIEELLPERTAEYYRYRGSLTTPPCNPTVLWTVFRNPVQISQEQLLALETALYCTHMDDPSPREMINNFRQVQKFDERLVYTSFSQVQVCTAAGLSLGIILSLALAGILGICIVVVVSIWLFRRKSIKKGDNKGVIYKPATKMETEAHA
T3 sequence (P00915 whole entry): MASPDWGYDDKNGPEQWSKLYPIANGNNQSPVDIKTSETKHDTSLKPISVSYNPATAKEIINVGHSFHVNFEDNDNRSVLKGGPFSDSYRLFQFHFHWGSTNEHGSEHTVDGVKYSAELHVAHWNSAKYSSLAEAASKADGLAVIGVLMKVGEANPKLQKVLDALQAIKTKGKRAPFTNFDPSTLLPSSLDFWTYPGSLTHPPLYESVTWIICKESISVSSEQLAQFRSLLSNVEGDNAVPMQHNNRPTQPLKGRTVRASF

SI hCA XII over hCA I or hCA II (hCA XII)	SI hCA XII over hCA IX (hCA XII)	Ki (hCA XII; [1]) [µM]	SI MAO-B/MAO-A (hMAO-A; IC50 MAO-B/IC50 MAO-A, selectivity for hMAO-A)	IC50 (hMAO-A; [2])	Ki (hCA I) [µM]	IC50 (hMAO-B) [µM]	Ki (hCA II) [µM]	SI hCA IX over hCA I or hCA II (hCA IX; [3])	Ki (hCA IX) [µM]	Ki (hCA XII) [µM]	melting point [°C]	MAO-A (IC50 μM) (hMAO-A; [2])	MAO-B (IC50 μM) (hMAO-B)	SI hCA IX over hCA I or hCA II (hCA IX)	Structure (SMILES)
>327.9	0.8	0.0305	52	< 10 µM and 1.92 µM	> 10	> 100	> 10	>427.3	0.0234						CC(=O)N[C@@H](C)C(=O)Nc1ccc2c(C)cc(=O)oc2c1 [Compound 6, Ac-Ala-AMC]
>250.0	2.3			21.8 ± 0.092 µM	> 10	78 ± 22.3	> 10	>106.8	0.0936	0.04	177 to 183				COC(=O)[C@H](Cc1ccccc1)NC(=O)N[C@@H](C)C(=O)Nc1ccc2c(C)cc(=O)oc2c1 [Compound 18, MeO-Phe-CO-Ala-AMC]
>268.8	2.4			54.8 ± 0.028 µM	> 10	> 100	> 10	>109.9	0.091	0.0372	153 to 155				Cc1cc(=O)oc2cc(NC(=O)[C@H](C)NC(=O)OCC3c4ccccc4-c4ccccc43)ccc12 [Compound 2, Fmoc-Ala-AMC]
>261.8	4.8			< 10 µM and 5.91 µM	> 10	> 100	> 10	>54.6	0.183	0.0382	193 to 195				COC(=O)CNC(=O)N[C@@H](C)C(=O)Nc1ccc2c(C)cc(=O)oc2c1 [Compound 16, MeO-Gly-CO-Ala-AMC]
>1052.6	27.4			> 100 µM	> 10	> 100	> 10	>38.4	0.261	0.0095	182 to 183	completely devoid of activity	completely devoid of activity		CCOC(=O)CCNC(=O)N[C@@H](C)C(=O)Nc1ccc2c(C)cc(=O)oc2c1 [Compound 19, EtO-βAla-CO-Ala-AMC]
>90.9	0.3			< 10 µM and 9.31 µM	> 10	> 100	> 10		0.0305					>327.9	Cc1cc(=O)oc2cc(NC(=O)[C@H](C)NC(=O)OCc3ccccc3)ccc12 [Compound 1, Z-Ala-AMC]
>213.7	0.6	0.0468		12 ± 0.693 µM	> 10	45.6 ± 1.85	> 10	>340.1	0.0294						COCc1cc(=O)oc2cc(NC(=O)[C@H](C)NC(C)=O)ccc12 [Compound 7, Ac-Ala-AMMC]
>241.0	1.9			47 ± 13.5 µM	> 10	> 100	> 10	>127.1	0.0787	0.0415					CCC(C)C(NC(=O)OCc1ccccc1)C(=O)Nc1ccc2c(COC)cc(=O)oc2c1 (stereo not drawn) [Compound 8, Z-Ile-AMMC]
>182.8	0.5			> 100 µM	> 10	75.3 ± 0.976	> 10	>370.4	0.027	0.0547	148 to 150				COCc1cc(=O)oc2cc(NC(=O)[C@H](C)NC(=O)N[C@@H](C)C(=O)OC)ccc12 [Compound 20, MeO-Ala-CO-Ala-AMMC]
>1041.7	17.0			69.6 ± 9.28 µM	> 10	58.6 ± 24	> 10	>61.2	0.163	0.0096	193 to 195				COC(=O)[C@H](C)NC(=O)N[C@@H](C)C(=O)Nc1ccc2c(C)cc(=O)oc2c1 [Compound 17, MeO-Ala-CO-Ala-AMC]
>29.7	0.5			41.3 ± 17.8 µM	> 10	79.5 ± 7.24	> 10	>58.3	0.172	0.336	205 to 209				COCc1cc(=O)oc2cc(NC(=O)[C@@H](NC(=O)[C@H](C)NC(=O)OCc3ccccc3)C(C)(C)C)ccc12 [Compound 11, Z-Ala-tLeu-AMMC]
